Experimental data published in patent US20160193240A1, “Ulmoside-A: Useful For Prevention Or Cure Of Metabolic Diseases” (COUNCIL OF SCIENTIFIC & INDUSTRIAL RESEARCH, priority 2013, published 2016).

Experiments:
wistar rats [1] = experiment: Dexamethasone-mediated reduction in serum osteocalcin in rats (ELISA); format: in vivo, rat; conditions: Dex alone, 14 days
Experimental: (§1) Food intake was measured daily and the rats were weighed each week. The rats were fasted overnight (O/N) on day 14th and on day 15th oral glucose tolerance test was performed. Following oral glucose tolerance test (OGTT), rats were kept with food and water ad libitum for one day. On day 16th, rats were fasted again O/N and then euthanized. At autopsy, from 5 animals/group, tissues were collected and snap frozen in liquid nitrogen. Blood was collected from cardiac punctures. Plasma was separated from whole blood by centrifugation at 3000 rpm for 20 min immediately after collection of blood and stored at −80° C. until further analysis. […] (quadriceps) skeletal muscles were processed for RNA and protein extraction, followed by quantitative real-time PCR (QRT-PCR) analysis. Two animals from each group were used for photography post autopsy.

wistar rats [2] = experiment: Dexamethasone-mediated imbalance in serum Na, K level in rats; format: in vivo, rat; conditions: Dex + Vehicle, 14 days
Experimental: Food intake was measured daily and the rats were weighed each week. The rats were fasted overnight (O/N) on day 14th and on day 15th oral glucose tolerance test was performed. Following oral glucose tolerance test (OGTT), rats were kept with food and water ad libitum for one day. On day 16th, rats were fasted again O/N and then euthanized. At autopsy, from 5 animals/group, tissues were collected and snap frozen in liquid nitrogen. Blood was collected from cardiac punctures. Plasma was separated from whole blood by centrifugation at 3000 rpm for 20 min immediately after collection of blood and stored at −80° C. until further analysis. Forelimb (quadriceps) skeletal muscles were processed for RNA and protein extraction, followed by quantitative real-time PCR (QRT-PCR) analysis. Two animals from each group were used for photography post autopsy.

wistar rats [3] = experiment: Dexamethasone-induced skeletal muscle atrophy in rats (limb appearance, QRT-PCR of PGC-1α and atrogenes); format: in vivo, rat; conditions: Dex alone
Experimental: Following 15 d indicated treatment of rats, the skeletal muscle (pulled hind limb) were collected and RNA was extracted from them and QRT-PCR was performed in a Roche lightcycler 480 machine. Data represents mean+/−SEM from six animals done in triplicates. “a” statistical analysis between Vehicle and Dexamethasone-treated groups, “b”, statistical analysis between dex-treated and dex+ ULMA groups. P<0.05, as determined by student's t-test, n=6.
(§2) Blood was collected from cardiac punctures.
RNA was isolated from skeletal muscles using Trizol (according to manufacturers' protocol) and reverse transcribed as described above and either PGC-1α expression or muscle atrophy related genes (atrogenes) expression were examined.

wistar rats [4] = experiment: Dexamethasone induced loss of body weight and death in rats; conditions: Dex alone (200 μg/kg IP), 2 weeks
Experimental: All animal experiments were conducted in accordance with current legislation on animal experiments [Institutional Animal Ethical Committee (IAEC)] at C.D.R.I. In all animal experiments, rats were individually housed at 21° C., in 12-h light:12-h dark cycles. All animals had access to normal chow diet and water ad libitum.
as §1

wistar rats [5] = experiment: Dexamethasone-mediated reduction of food intake in rats; format: in vivo, rat; conditions: Dex alone 200 μg/kg IP
Experimental: Six to eight week old wistar rats (n=6 per group) were housed separately and treated as indicated in the example. Daily food intake was measured and plotted. […] Data represents mean+/−SEM.
as §2
Food intake was measured every alternate day by giving measured food to each cage in evening (5.00 PM) and collection of residual food in next morning (9.00 AM) and measuring it. The residual food was subtracted from the food given and plotted.

GAL-PPARα = experiment: PPARα activation assay (GAL-PPARα / GAL4-Luc reporter) in HEK293 cells expressing endogenous AdipoR1; format: cell-based, human; conditions: 100 pM GW-7647 alone, 6 hours, HEK293
Experimental: A. ULMA enhances PPARα ligand activity; HEK293 cells were seeded on to 24 well plates and after 24 h, transfected with 100 ng of GAL-PPARα and 100 ng GAL4-Luc along with 100 ng eGFPC1 (Clontech) plasmids using lipofectamine LTX (Invitrogen) according to manufacturer's instructions. 24 h after transfection, cells were treated with or without 100 pM GW-7647 alone or in combination with 100 nM ULMA or 1 μg/ml globular adiponectin (gAd) for 6 h. Following which, the cells were lysed and GFP fluorescence and firefly luciferase activities were measured. Luciferase activity was normalized with GFP fluorescence and plotted as fold activity over vehicle (0.1% DMSO) treated control. Data shown in mean±SEM of three independent experiments performed in duplicates. *p<0.05 as determined by two tailed unpaired student's t-test.
The potential of ULMA to activate adiponectin receptor signaling was evaluated using a PPARα activation assay. […] 24 hours following plating, these cells were transfected with 100 ng of GAL-PPARα (PPARα cDNA fused with GAL4 DNA binding domain) and 100 ng GAL4 upstream activation sequence driven luciferase (GAL4-Luc) reporter gene that is capable of binding to any protein fused to GAL4-DNA binding domain (in this case GAL-PPARα) and 100 ng Green fluorescence expressing plasmid (GFP) that was used as an internal control, using lipofectamine LTX transfection reagent (Invitrogen) according to manufacturers' instructions. […] The cells were then lysed and luciferase activity was measured in a Promega GloMax luminometer using steady Glo luciferase assay kit (Promega) according to manufacturers' instructions; and GFP fluorescence was measured in a fluorimeter (Polarstar Galaxy, BMG Labtech). […]

| Compound | Osteocalcin (wistar rats [1]) | K (wistar rats [2]) | appearance of denuded forelimb and hindlimb (wistar rats [3]) | mRNA levels of atrogenes (Atrogin-1/MAFbx, MuRF1, Cathepsin L, Glul) in skeletal muscle (wistar rats [3]) | Survival/group (%) (wistar rats [4]) | food intake (wistar rats [5]) | increase of luciferase activity over vehicle-treated controls (GAL-PPARα) |
| --- | --- | --- | --- | --- | --- | --- | --- |
| C[C@@H]1C[C@H]2[C@@H]3CCC4=CC(=O)C=C[C@]4(C)[C@@]3(F)[C@@H](O)C[C@]2(C)[C@@]1(O)C(=O)CO [Dex, Dexamethasone, reference compound] | 263.5 ± 6.4 ng/mL | 3.47 ± 0.13 mM | severe abnormality in the limbs | robustly induced | 46.7% | robust loss in food-intake | – |
| CC(C)(Sc1ccc(CCN(CCCCC2CCCCC2)C(=O)NC2CCCCC2)cc1)C(=O)O [GW-7647, reference compound] | – | – | – | – | – | – | 2 folds |
